Patent publication US20020115642A1, “Beta-lactam antibiotics” (priority 2000, published 2002)
≈ marks a conversion by molar mass, not a printed value. Read-outs that look alike come from different tables or passages of the source.

Columns and labels:
Experiment in all cases: Susceptibility testing (MIC, modified NCCLS method)
E. coli N = type: cell-based, Escherichia coli; conditions: E. coli (N)
Experimental: (§1) The NCCLS (National Committee for Clinical Laboratory Standards) method to determine MIC's of antimicrobial compounds was modified for high-throughput screening. All stocks of tested compounds were prepared in either water or in dimethylsulfoxide (DMSO), depending on the solubility. […] Briefly 20 2-fold serial dilutions of testing compounds from the highest concentration were made in a 384-well microtiter plate. Each well was inoculated with testing bacteria in broth to a final concentration of approximately 1-1.5×10^6 cells/ml. Bacterial growth was determined by the increase of optical density at 600 nm using a microplate reader (Tecan SpectraFluor Plus).

E. coli/TEM-1 = type: cell-based, Escherichia coli
Experimental: as §1

Staphylococcus aureus = type: cell-based
Experimental: as §1

K. pneumoniae = type: cell-based, Klebsiella pneumoniae
Experimental: as §1

P. aeruginosa = type: cell-based, Pseudomonas aeruginosa
Experimental: as §1

E. faecalis = type: cell-based, Enterococcus faecalis
Experimental: as §1

E. aerogenes = type: cell-based, Enterobacter aerogenes
Experimental: as §1

E. cloacae = type: cell-based, Enterobacter cloacae
Experimental: as §1

[1] = Escherichia coli, read-out: MIC
[2] = Staphylococcus aureus, ATCC11632, S. aureus ATCC 11632, read-out: MIC
[3] = Staphylococcus aureus, ATCC33594, S. aureus ATCC 33594, read-out: MIC
[4] = Staphylococcus aureus, ATCC700260, S. aureus ATCC 700260, read-out: MIC
[5] = Staphylococcus aureus, ATCC700699, S. aureus ATCC 700699, read-out: MIC
[6] = Enterococcus faecalis, ATCC49757, E. faecalis ATCC 49757, read-out: MIC
[7] = Enterococcus faecalis, ATCC700802, E. faecalis ATCC 700802, read-out: MIC
[8] = Enterobacter cloacae, ATCC23355, E. cloacae ATCC 23355, read-out: MIC
[9] = Klebsiella aerogenes, ATCC35028, E. aerogenes ATCC 35028, read-out: MIC
[10] = Klebsiella pneumoniae, ATCC51503, K. pneumoniae ATCC 51503, read-out: MIC
[11] = Klebsiella pneumoniae, ATCC700721, K. pneumoniae ATCC 700721, read-out: MIC
[12] = Pseudomonas aeruginosa, ATCC21726, P. aeruginosa ATCC 21726, read-out: MIC
[13] = Pseudomonas aeruginosa, ATCC29872, P. aeruginosa ATCC 29872, read-out: MIC

Compound | MIC (E. coli N) [µg/mL] | MIC (E. coli/TEM-1; E. coli/Tem-1) [µg/mL] | MIC (Staphylococcus aureus; S. aureus ATCC 700260) [ng/mL] | MIC (K. pneumoniae; K. pneumoniae ATCC 700721) [µg/mL] | MIC (P. aeruginosa; P. aeruginosa ATCC 21726) [µg/mL] | MIC (Staphylococcus aureus; S. aureus ATCC 700699) [ng/mL] | MIC (E. faecalis; E. faecalis ATCC 49757) [µg/mL] | MIC (E. aerogenes; E. aerogenes ATCC 35028) [µg/mL] | MIC (K. pneumoniae; K. pneumoniae ATCC 51503) [µg/mL] | MIC (Staphylococcus aureus; [4]) [ng/mL] | MIC (Staphylococcus aureus; [5]) [ng/mL] | MIC (K. pneumoniae; [11]) [µg/mL] | MIC (P. aeruginosa; [12]) [µg/mL] | MIC (Staphylococcus aureus; S. aureus ATCC 11632) [ng/mL] | MIC (Staphylococcus aureus; S. aureus ATCC 33594) [ng/mL] | MIC (E. faecalis; E. faecalis ATCC 700802) [µg/mL] | MIC (E. cloacae; E. cloacae ATCC 23355) [µg/mL] | MIC (P. aeruginosa; P. aeruginosa ATCC 29872) [µg/mL] | further results
3-(2-(2,4-Dichlorophenoxy)-5-chlorophenoxy)methyl-7-(1-phenyl-2-aminoacetamido)-3-cephem-4-carboxylic acid [Compound 37] | 4 | 0.12 | 3.9 | 8 | >16 | – | – | – | – | – | – | – | – | – | – | – | – | – | –
3-(2-(2,4-Dichlorophenoxy)-5-chlorophenoxy)methyl-7-[4-(2-aminothiazole)-yl-2-acetamido]-3-cephem-4-carboxylic acid [Compound 39] | 1 | 0.063 | 2 | – | >16 | 4000 | 16 | >16 | 16 | – | – | – | – | – | – | – | – | – | –
O=C(Cc1cccs1)NC1C(=O)N2C(C(=O)O)C(COC(=O)Oc3cc(Cl)ccc3Oc3ccc(Cl)cc3Cl)=CS[C@H]12 (some centres unmarked) [Compound 15, 3-((2-(2,4-Dichlorophenoxy)-5-chlorophenoxy)carbonyloxy)methyl-7-(2-thienylacetamido)-2-cephem-4-carboxylic acid] | – | – | – | – | – | – | – | – | – | 61 (≈ 0.0911 µM) | 61 (≈ 0.0911 µM) | 1.96 (≈ 2.93 µM) | > 15.7 | – | – | – | – | – | MIC (E. coli N; [1]): 0.008 µg/mL (≈ 0.0119 µM); MIC (E. coli/TEM-1; Escherichia coli): 0.0031 µg/mL (≈ 0.00463 µM); MIC (Staphylococcus aureus; [2]): 610 ng/mL (≈ 0.911 µM); MIC (Staphylococcus aureus; [3]): 61 ng/mL (≈ 0.0911 µM); MIC (E. faecalis; [6]): > 15.7 µg/mL; MIC (E. faecalis; [7]): 15.7 µg/mL (≈ 23.4 µM); MIC (E. cloacae; [8]): 0.25 µg/mL (≈ 0.373 µM); MIC (E. aerogenes; [9]): 0.98 µg/mL (≈ 1.46 µM); MIC (K. pneumoniae; [10]): 1.96 µg/mL (≈ 2.93 µM); MIC (P. aeruginosa; [13]): > 15.7 µg/mL
O=C(Cc1cccs1)NC1C(=O)N2C(C(=O)O)=C(COC(=O)Oc3cc(Cl)ccc3Oc3ccc(Cl)cc3Cl)C[S+]([O-])[C@H]12 (some centres unmarked) [Compound 17, 3-((2-(2,4-Dichlorophenoxy)-5-chlorophenoxy)carbonyloxy)methyl-7-(2-thienylacetamido)-1-oxo-3-cephem-4-carboxylic acid] | – | – | – | – | – | – | – | – | – | 0.063 (≈ 9.18e-05 µM) | 0.25 (≈ 0.000364 µM) | 1.03 (≈ 1.5 µM) | > 16.5 | – | – | – | – | – | MIC (E. coli N; [1]): 0.016 µg/mL (≈ 0.0233 µM); MIC (E. coli/TEM-1; Escherichia coli): 0.032 µg/mL (≈ 0.0467 µM)
O=C(Cc1cccs1)NC1C(=O)N2C(C(=O)O)=C(CC=COc3cc(Cl)ccc3Oc3ccc(Cl)cc3Cl)CSC12 (centres unmarked) [Compound 24, 3-(1-(2-(2,4-Dichlorophenoxy)-5-chlorophenoxy)-3-propenyl)-7-(2-thienylacetamido)-3-cephem-4-carboxylic acid] | 0.26 (≈ 0.399 µM) | 0.016 (≈ 0.0245 µM) | 0.01 (≈ 1.53e-05 µM) | 2.07 (≈ 3.17 µM) | >16.6 | 32 (≈ 0.0491 µM) | 4.14 (≈ 6.35 µM) | 4.14 (≈ 6.35 µM) | 2.07 (≈ 3.17 µM) | – | – | – | – | 65 (≈ 0.0997 µM) | 65 (≈ 0.0997 µM) | 8.28 (≈ 12.7 µM) | 2.07 (≈ 3.17 µM) | >16.6 | –
O=C(Cc1cnc[nH]1)NC1C(=O)N2C(C(=O)O)=C(COc3cc(Cl)ccc3Oc3ccc(Cl)cc3Cl)CS[C@H]12 (some centres unmarked) [Compound 31, 3-(2-(2,4-Dichlorophenoxy)-5-chlorophenoxy)methyl-7-[2-(3H-imidazol-4-yl)]-acetamido-3-cephem-4-carboxylic acid] | 0.25 (≈ 0.41 µM) | 0.063 (≈ 0.103 µM) | 32000 (≈ 52.5 µM) | 0.5 (≈ 0.82 µM) | >32 | 32000 (≈ 52.5 µM) | 32 (≈ 52.5 µM) | 16 (≈ 26.2 µM) | 32 (≈ 52.5 µM) | – | – | – | – | 16000 (≈ 26.2 µM) | 63 (≈ 0.103 µM) | >32 | 16 (≈ 26.2 µM) | >32 | MIC (Staphylococcus aureus; S. aureus ATCC 33591): 16000 ng/mL (≈ 26.2 µM)
O=C(Cc1cccs1)NC1C(=O)N2C(C(=O)O)=C(C=CCOc3ccc(Cl)cc3C(=O)Nc3ccc(Cl)c(Cl)c3)CS[C@H]12 (some centres unmarked) [Compound 35, 3-{3-[4-Chloro-2-(3,4-dichloro-phenylcarbamoyl)-phenoxy]-propenyl}-7-(2-thiophene-acetmido)-3-cephem-4-carboxylic acid] | – | – | 250 (≈ 0.368 µM) | >32 | >32 | >32000 | 8 (≈ 11.8 µM) | >32 | >32 | – | – | – | – | 63 (≈ 0.0928 µM) | 63 (≈ 0.0928 µM) | >32 | >32 | >32 | –
O=C(O)CCC(=O)N[C@@H]1C(=O)N2C(C(=O)O)=C(COc3cc(Cl)ccc3Oc3ccc(Cl)cc3Cl)CS[C@H]12 [Compound 36] | – | – | – | – | – | – | – | – | – | > 32000 | > 32000 | > 32 | > 32 | – | – | – | – | – | MIC (Staphylococcus aureus; [2]): > 32000 ng/mL; MIC (Staphylococcus aureus; Staphylococcus aureus, ATCC33591, S. aureus ATCC 33591, read-out: MIC): 2000 ng/mL (≈ 3.32 µM); MIC (Staphylococcus aureus; [3]): > 32000 ng/mL; MIC (E. faecalis; [6]): > 32 µg/mL; MIC (E. faecalis; [7]): > 32 µg/mL; MIC (E. cloacae; [8]): > 32 µg/mL; MIC (E. aerogenes; [9]): > 32 µg/mL; MIC (K. pneumoniae; [10]): > 32 µg/mL; MIC (P. aeruginosa; [13]): > 32 µg/mL
NC(C(=O)NC1C(=O)N2C(C(=O)O)=C(COc3cc(Cl)ccc3Oc3ccc(Cl)cc3Cl)CSC12)c1ccccc1 (centres unmarked) [Compound 38, 3-(2-(2,4-Dichlorophenoxy)-5-chlorophenoxy)methyl-7-(1-phenyl-2-aminoacetamido)-3-cephem-4-carboxylic acid] | 0.031 (≈ 0.0488 µM) | 0.015 (≈ 0.0236 µM) | 0.015 (≈ 2.36e-05 µM) | – | >15.9 | 0.015 (≈ 2.36e-05 µM) | 15.9 (≈ 25 µM) | 1.98 (≈ 3.12 µM) | 1.98 (≈ 3.12 µM) | – | – | – | – | 62 (≈ 0.0976 µM) | 62 (≈ 0.0976 µM) | 15.9 (≈ 25 µM) | 1.98 (≈ 3.12 µM) | >15.9 | –
NC(C(=O)NC1C(=O)N2C(C(=O)O)=C(COc3cc(Cl)ccc3Oc3ccc(Cl)cc3Cl)CS[C@H]12)c1ccc(O)cc1 (some centres unmarked) [Compound 41, 3-(2-(2,4-Dichlorophenoxy)-5-chlorophenoxy)methyl-7-[2-amino-2-(4-hydroxy-phenyl)acetamido)-3-cephem-4-carboxylic acid] | – | – | – | – | – | – | – | – | – | 63 (≈ 0.0968 µM) | 63 (≈ 0.0968 µM) | 8 (≈ 12.3 µM) | > 32 | – | – | – | – | – | MIC (E. coli N; [1]): 0.25 µg/mL (≈ 0.384 µM); MIC (Staphylococcus aureus; [2]): 63 ng/mL (≈ 0.0968 µM); MIC (Staphylococcus aureus; [3]): 63 ng/mL (≈ 0.0968 µM); MIC (E. faecalis; [6]): 32 µg/mL (≈ 49.2 µM); MIC (E. faecalis; [7]): 32 µg/mL (≈ 49.2 µM); MIC (E. cloacae; [8]): 1 µg/mL (≈ 1.54 µM); MIC (E. aerogenes; [9]): 4 µg/mL (≈ 6.15 µM); MIC (K. pneumoniae; [10]): 8 µg/mL (≈ 12.3 µM); MIC (P. aeruginosa; [13]): > 32 µg/mL
CON=C(C(=O)NC1C(=O)N2C(C(=O)O)=C(COc3cc(Cl)ccc3Oc3ccc(Cl)cc3Cl)CSC12)c1csc(N)n1 (centres unmarked) [Compound 44] | – | – | 63 (≈ 0.092 µM) | 8 (≈ 11.7 µM) | >32 | >32000 | 32 (≈ 46.7 µM) | >32 | 8 (≈ 11.7 µM) | – | – | – | – | 500 (≈ 0.73 µM) | 63 (≈ 0.092 µM) | 32 (≈ 46.7 µM) | 4 (≈ 5.84 µM) | >32 | –
CC(=O)NC1C(=O)N2C(C(=O)O)=C(COc3cc(Cl)ccc3Oc3ccc(Cl)cc3Cl)CSC12 (centres unmarked) [Compound 45] | – | – | 63 (≈ 0.116 µM) | 2 (≈ 3.68 µM) | >32 | 16000 (≈ 29.4 µM) | 16 (≈ 29.4 µM) | >32 | 8 (≈ 14.7 µM) | – | – | – | – | >32000 | 63 (≈ 0.116 µM) | 32 (≈ 58.8 µM) | >32 | >32 | –
C[C@@H](O)[C@H]1C(=O)N2C(C(=O)O)=C(SCCN=CN)C[C@H]12 [Imipenem, reference compound] | – | – | – | – | – | – | – | – | – | – | – | – | – | – | – | – | – | – | MIC range (E. cloacae; E. cloacae (1)): 0.0078 µg/mL (≈ 0.0261 µM); MIC (E. cloacae; Enterobacter cloacae, E. cloacae (1), read-out: GM* MIC (geometric mean)): 0.0078 µg/mL (≈ 0.0261 µM); MIC range (E. aerogenes; E. aerogenes (5)): 0.5 to 1 µg/mL; MIC (E. aerogenes; Klebsiella aerogenes, E. aerogenes (5), read-out: GM* MIC (geometric mean)): 0.66 µg/mL (≈ 2.2 µM); MIC range (K. pneumoniae; K. pneumoniae (5)): 0.063 to 8 µg/mL; MIC (K. pneumoniae; Klebsiella pneumoniae, K. pneumoniae (5), read-out: GM* MIC (geometric mean)): 0.46 µg/mL (≈ 1.54 µM)
